Patent publication US7064139B2, “Method for treating retroviral infections” (Uniroyal Chemical Company, Inc., priority 2001, dated 2006)
≈ marks a conversion by molar mass, not a printed value. Like-named read-outs stand apart in the source and are kept apart here.

Legend:
HIV-1 (IIIB) = assay: microbe, parasite or virus in culture; format: cell-based; details: for EC50 (ug/ml) HIV-1 / EC50: CEM cells, syncytium formation, day four post infection; for HIV-1 % Protection: protection of CEM cells against virus-induced cytopathicity at the concentration in the previous column; for EC50: Human immunodeficiency virus 1, IIIB, CCRF-CEM, read-out: EC50 (ug/ml) HIV-1
From the text: (§1) The cell type used to determine activity of the compounds of the invention herein, i.e., the test compounds, against HIV was human T-lymphoblast (CEM) cells obtained from the American Tissue Cell Culture Collection (Rockville, Md.). HIV-1 (IIIB) was originally obtained from the culture of persistently HIV-1 infected H9 cells and was provided by R. C. Gallo and M. Popovic (National Cancer Institute, National Institutes of Health, Bethesda, Md.). HIV-2 (ROD) was originally obtained from L. M. Montagnier (Pasteur Institute, Paris, France).
(§2) To determine the antiviral activity of the test compounds, CEM cells were suspended at a cell density of approximately 300,000 cells per ml of culture medium and infected with approximately 100 CCID50 (100 CCID50 being the 50% cell culture infective dose) of HIV-1 (IIIB) or HIV-2 (ROD)). Then 100 μl of the infected cell suspensions was added to 200 μl micro titer plate wells containing 100 μl of appropriate serial (5-fold) dilutions of the test compounds. The inhibitory effect of the test compounds on HIV-1 or HIV-2 syncytium formation in CEM cells was examined microscopically on day four post infection.
(§3) In these cases, the percent protection of the cells against virus-induced cytopathicity by the test compounds at the indicated compound concentration in the previous column is given.

HIV-2 (ROD) = assay: Inhibition of HIV-2 syncytium formation in CEM cells; format: cell-based; details: for HIV-2 % Protection: protection of CEM cells against virus-induced cytopathicity at the concentration in the previous column; for EC50: Human immunodeficiency virus 2, CCRF-CEM, read-out: EC50 (ug/ml) HIV-2
From the text: as §1, §2, §3

Davis strain CMV = assay: Reduction of CMV-induced cytopathicity in HEL cells; format: cell-based, human cytomegalovirus (HCMV); details: for Antiviral % Inhibition Davis strain CMV: estimate of percent protection at the concentration in the previous column; for EC50: read-out: Antiviral EC50 (ug/ml) Davis strain CMV
Procedure: Confluent HEL cells grown in […] microtiter plates were inoculated with CMV at an input of 100 PFU (plaque forming units) per well. After a one to two hour incubation period, residual virus was removed and the infected cells were further incubated with MEM (Minimal Essential Medium) (supplemented with 2% inactivated Fetal Calf Serum (FCS), […], and 0.3% sodium bicarbonate) containing varying concentrations of the test compounds. Antiviral activity was expressed as EC50 (50% effective concentration), or test compound concentration required to reduce virus-induced cytopathicity after seven days by 50% compared to the untreated control.
In some cases, the compounds had considerable cytotoxicity against HEL cells, which made determination of the EC50 difficult. In these cases, an estimate of the percent protection at the compound concentration indicated in the previous columns is given.

[1] = CEM cells, syncytium formation, day four post infection
[2] = HEL cells, virus-induced cytopathicity after seven days
[3] = Human betaherpesvirus 5, 168 h, HEL cells, virus-induced cytopathicity after seven days

SMILES	EC50 (ug/ml) HIV-1 (HIV-1 (IIIB))	HIV-1 % Protection (HIV-1 (IIIB)) [%]	EC50 (ug/ml) HIV-2 (HIV-2 (ROD); [1]) [µg/mL]	HIV-2 % Protection (HIV-2 (ROD)) [%]	Antiviral % Inhibition Davis strain CMV (Davis strain CMV; HEL cells) [%]	Antiviral EC50 (ug/ml) Davis strain CMV (Davis strain CMV; [2]) [µg/mL]	EC50 (HIV-1 (IIIB)) [µg/mL]	EC50 (HIV-2 (ROD); [1]) [µg/mL]	EC50 (Davis strain CMV; [3]) [µg/mL]	EC50 (HIV-2 (ROD)) [µg/mL]	EC50 (Davis strain CMV; Human betaherpesvirus 5, HEL, 168 h) [µg/mL]
Cc1ccc[n+]([O-])c1S(=O)(=O)C(C)c1ccccc1 (centres unmarked) [Compound 115]	>20 µg/mL	0.0	>20.00	0.0	40.0	>50	–	–	–	–	–
Cc1ccc(C)c(C(C)[S+]([O-])c2cccc[n+]2[O-])c1 (centres unmarked) [Compound 103]	>.8 µg/mL	0.0	>0.8	0.0	–	4.3	–	–	–	–	–
Cc1ccc(C[S+]([O-])c2cccc[n+]2[O-])cc1 (centres unmarked) [Compound 91]	>4 µg/mL	0.0	>4.0	0.0	–	34.5	–	–	–	–	–
COc1ccc(Br)c(CS(=O)(=O)c2cccc[n+]2[O-])c1 [Compound 31]	4.00 µg/mL (≈ 11.2 µM)	–	9.0 (≈ 25.1 µM)	–	–	10.0	–	–	–	–	–
Cc1ccc(C)c(C(Cl)S(=O)(=O)c2ccccn2)c1 (centres unmarked) [Compound 106, 2-((2,5-dimethylphenyl)chloromethylsulphonyl)pyridine]	–	–	–	0.0	–	–	0.9 (≈ 3.04 µM)	> 4	20 (≈ 67.6 µM)	–	–
O=S(=O)(Cc1cccc(F)c1)c1cccc[n+]1[O-] [Compound 28]	6.50 µg/mL (≈ 24.3 µM)	–	7.5 (≈ 28.1 µM)	–	40.0	>20	–	–	–	–	–
O=S(=O)(Cc1ccc(-c2ccccc2)cc1)c1cccc[n+]1[O-] [Compound 54]	≧4 ug/ml	37.5	4.0 (≈ 12.3 µM)	–	–	5.0	–	–	–	–	–
O=S(=O)(Cc1ccc(F)cc1)c1cccc[n+]1[O-] [Compound 29]	11.00 µg/mL (≈ 41.2 µM)	–	7.0 (≈ 26.2 µM)	–	10.0	>20	–	–	–	–	–
Oc1cccnc1SCc1ccccc1 [Compound 140, 2-[(Phenylmethyl)thio]-3-pyridinol]	–	–	–	–	–	–	2 (≈ 9.2 µM)	–	–	12 (≈ 55.2 µM)	12 (≈ 55.2 µM)
N#Cc1ccccc1CS(=O)(=O)c1cccc[n+]1[O-] [Compound 24]	7.00 µg/mL (≈ 25.5 µM)	–	9.5 (≈ 34.6 µM)	–	30.0	>5	–	–	–	–	–
Cc1ccc(CS(=O)(=O)c2cccc[n+]2[O-])cc1[N+](=O)[O-] [Compound 67]	2.30 µg/mL (≈ 7.46 µM)	–	2.4 (≈ 7.78 µM)	–	20.0	>50	–	–	–	–	–
O=S(=O)(Cc1c2ccccc2cc2ccccc12)c1cccc[n+]1[O-] [Compound 51, 2[1(9-anthryl)methylsulfonyl]pyridine-N-oxide]	–	0.0	–	0.0	–	–	> 0.8	> 0.8	1.3 (≈ 3.72 µM)	–	–
Cc1ccc(C)c(C(C)S(=O)(=O)c2cc(C)cc(C)[n+]2[O-])c1 (centres unmarked) [Compound 81]	≧20 ug/ml	37.5	>20.0	0.0	–	8.6	–	–	–	–	–
Cc1ccc(C)c(C(C)S(=O)(=O)c2c(C)ccc[n+]2[O-])c1 (centres unmarked) [Compound 71, 2-[1-(2,5-Dimethylphenyl)ethylsulfonyl]-3-methylpyridine N-oxide]	–	–	–	0.0	–	–	0.05 (≈ 0.164 µM)	> 20	3.2 (≈ 10.5 µM)	–	–
[O-][n+]1ccccc1[S+]([O-])Cc1ccc2c(c1)OCO2 (centres unmarked) [Compound 96]	20.00 µg/mL (≈ 72.1 µM)	–	12.0 (≈ 43.3 µM)	–	0.0	>50	–	–	–	–	–
CCC(C)(C)c1ccc(CS(=O)(=O)c2cccc[n+]2[O-])cc1 [Compound 40, 2-(((4-(1,1-dimethyl)propyl)phenyl)methylsulfonyl)pyridine-N-oxide]	3.10 µg/mL (≈ 9.7 µM)	–	3.4 (≈ 10.6 µM)	–	–	1.5	–	–	–	–	–
Cc1ccc(C)c(C(C)S(=O)(=O)c2cccc[n+]2[O-])c1 (centres unmarked) [Compound 9, 2-(1-[2,5-Dimethylphenyl]ethylsulfonyl)pyridine N-oxide]	–	37.5	–	0.0	0.0	–	≥ 100	> 100	> 50	–	–
Cc1ccc(C)c(CS(=O)(=O)c2ccc(Cl)c[n+]2[O-])c1 [Compound 94]	1.90 µg/mL (≈ 6.09 µM)	–	2.6 (≈ 8.34 µM)	–	–	12.0	–	–	–	–	–
Cc1ccc(C)c(C(C)S(=O)(=O)c2c(Cl)ccc[n+]2[O-])c1 (racemic) [Compound 124]	>.8 µg/mL	0.0	>0.80	0.0	10.0	>5	–	–	–	–	–
Cc1ccc(C)c(CS(=O)(=O)c2ccccn2)c1 [Compound 150]	3.25 µg/mL (≈ 12.4 µM)	–	20.0 (≈ 76.5 µM)	–	20.0	>50	–	–	–	–	–
Cc1ccc(C)c(C[S+]([O-])c2ccc(Cl)c[n+]2[O-])c1 (centres unmarked) [Compound 153]	2.10 µg/mL (≈ 7.1 µM)	–	3.0 (≈ 10.1 µM)	–	–	11.5	–	–	–	–	–
Cc1ccc(C)c(C(C)S(=O)(=O)c2ccccn2)c1 (centres unmarked) [Compound 161]	9.50 µg/mL (≈ 34.5 µM)	–	>100	0.0	–	38.0	–	–	–	–	–
Cc1ccccc1C[S+]([O-])c1cccc[n+]1[O-] (centres unmarked) [Compound 90]	≧20 ug/ml	37.5	–	–	–	37.0	–	–	–	–	–
Nc1ccn(C[C@@H](CO)OCP(=O)(O)O)c(=O)n1 [S-HPMPC, reference compound]	–	–	–	–	–	0.3	–	–	–	–	–
Cc1ccc(C)c(CSc2c(C)ccc[n+]2[O-])c1 [Compound 164]	1.0 µg/mL (≈ 3.86 µM)	–	>20	0.0	–	–	–	–	–	–	–
O=S(=O)(Cc1ccc2c(c1)OCO2)c1cccc[n+]1[O-] [Compound 39]	9.00 µg/mL (≈ 30.7 µM)	–	–	–	30.0	>20	–	–	–	–	–
Nc1nc2c(ncn2COC(CO)CO)c(=O)[nH]1 [DHPG, reference compound]	–	–	–	–	–	1	–	–	–	–	–
